Test results taken from US8889870B2, “Kinase inhibitors” (Allergan, Inc., priority 2012, dated 2014).

What follows are compounds tested against VEGFR2 (KDR) kinase, purified cytoplasmic domain KDR protein (Homo sapiens (Human), UniProt P35968) (assay: VEGFR2 Kinase Assay). Conditions: 2.7 μM ATP, poly-Glu-Tyr (4:1) substrate, 15 minute incubation at 30° C., ELISA read at 492 nm.
Assay type: biochemical
Description: Biochemical KDR kinase assays were performed in 96 well microliter plates that were coated overnight with 75 μg/well of poly-Glu-Tyr (4:1) in 10 mM Phosphate Buffered Saline (PBS), pH 7.4. The coated plates were washed with 2 mLs per well PBS+0.05% Tween-20 (PBS-T), blocked by incubation with PBS containing 1% BSA, then washed with 2 mLs per well PBS-T prior to starting the reaction. […] Reactions were initiated by the addition 20 ul per well of kinase buffer containing 200-300 ng purified cytoplasmic domain KDR protein (BPS Bioscience, San Diego, Calif.). Following a 15 minute incubation at 30° C., the reactions were washed 2 mLs per well PBS-T. 100 μl of a monoclonal anti-phosphotyrosine antibody-peroxidase conjugate diluted 1:10,000 in PBS-T was added to the wells for 30 minutes. Following a 2 mLs per well wash with PBS-Tween-20, 100 μl of O-Phenylenediamine Dihydrochloride in phosphate-citrate buffer, containing urea hydrogen peroxide, was added to the wells for 7-10 minutes as a colorimetric substrate for the peroxidase. […] IC50 values for compound inhibition were calculated directly from graphs of optical density (arbitrary units) versus compound concentration following subtraction of blank values.

Sequence of VEGFR2 (KDR) kinase, purified cytoplasmic domain KDR protein (P35968 786-1356): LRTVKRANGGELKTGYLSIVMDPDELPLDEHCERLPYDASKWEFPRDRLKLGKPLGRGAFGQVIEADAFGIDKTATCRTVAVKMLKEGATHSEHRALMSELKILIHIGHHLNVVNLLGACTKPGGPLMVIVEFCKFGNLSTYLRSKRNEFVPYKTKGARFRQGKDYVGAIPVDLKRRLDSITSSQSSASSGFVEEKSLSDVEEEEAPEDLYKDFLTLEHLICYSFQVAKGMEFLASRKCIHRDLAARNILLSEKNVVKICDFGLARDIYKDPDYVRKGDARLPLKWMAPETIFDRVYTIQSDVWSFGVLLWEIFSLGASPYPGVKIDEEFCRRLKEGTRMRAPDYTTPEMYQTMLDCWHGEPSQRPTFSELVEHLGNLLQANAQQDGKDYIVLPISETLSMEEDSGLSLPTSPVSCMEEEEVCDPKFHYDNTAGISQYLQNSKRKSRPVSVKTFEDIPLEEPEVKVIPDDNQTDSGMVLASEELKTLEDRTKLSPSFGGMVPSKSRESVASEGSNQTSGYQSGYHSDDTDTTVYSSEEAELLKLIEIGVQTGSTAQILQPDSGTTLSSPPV

Row | Compound | IC50
1 | 4-(2-Methylsulfanyl-5,7-dihydro-pyrrolo[3,4-d]pyrimidin-6-yl)-pyridine-2-carboxylic acid (3-trifluoromethyl-phenyl)-amide [Example 126] | > 10000 nM
2 | CSc1ncc2c(n1)CCN(c1cc(C)cc(C(=O)Nc3cccc(C(F)(F)F)c3)c1)C2 [Example 140, 3-methyl-5-[2-(methylthio)-7,8-dihydropyrido[4,3-d]pyrimidin-6(5H)-yl]-N-[3-(trifluoromethyl)phenyl]benzamide] | > 1000 nM
3 | CSc1ncc2c(n1)CCN(c1cc(C)cc(C(=O)Nc3cccc(C(C)C)c3)c1)C2 [Example 142, N-(3-isopropylphenyl)-3-methyl-5-[2-(methylthio)-7,8-dihydropyrido[4,3-d]pyrimidin-6(5H)-yl]benzamide] | > 1000 nM
4 | Cc1ccc(NC(=O)Nc2ccc(N3CCc4ccncc4C3)cc2)cc1 [Example 165, 1-[4-(3,4-dihydro-2,7-naphthyridin-2(1H)-yl)phenyl]-3-(4-methylphenyl)urea] | > 1000 nM

Each compound was assayed against PDGFRβ kinase, purified cytoplasmic domain PDGFR-b protein (Homo sapiens (Human), UniProt P09619) (assay: PDGFRβ Kinase Assay). Conditions: 36 μM ATP, poly-Glu-Tyr (4:1) substrate, 60 minute incubation at 30° C., ELISA read at 492 nm.
Sequence of PDGFRβ kinase, purified cytoplasmic domain PDGFR-b protein (P09619 554-1106): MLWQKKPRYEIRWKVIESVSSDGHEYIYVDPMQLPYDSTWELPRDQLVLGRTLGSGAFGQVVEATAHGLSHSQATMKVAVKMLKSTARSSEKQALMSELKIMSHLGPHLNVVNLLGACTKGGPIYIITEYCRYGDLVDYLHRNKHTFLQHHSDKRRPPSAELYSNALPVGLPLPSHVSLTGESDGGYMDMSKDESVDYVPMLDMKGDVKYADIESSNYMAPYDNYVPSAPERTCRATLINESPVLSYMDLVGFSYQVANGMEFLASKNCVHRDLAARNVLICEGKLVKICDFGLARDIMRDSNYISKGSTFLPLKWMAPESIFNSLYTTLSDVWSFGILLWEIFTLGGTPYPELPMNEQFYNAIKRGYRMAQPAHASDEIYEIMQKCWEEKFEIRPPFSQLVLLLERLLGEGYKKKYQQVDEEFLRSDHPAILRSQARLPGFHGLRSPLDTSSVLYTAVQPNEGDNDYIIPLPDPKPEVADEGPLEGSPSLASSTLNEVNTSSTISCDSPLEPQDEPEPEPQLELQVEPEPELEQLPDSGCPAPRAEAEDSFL
Assay type: biochemical
Description: Biochemical PDGFRβ kinase assays were performed in 96 well microtiter plates that were coated overnight with 75 μg of poly-Glu-Tyr (4:1) in 10 mM Phosphate Buffered Saline (PBS), pH 7.4. The coated plates were washed with 2 mLs per well PBS+0.05% Tween-20 (PBS-T), blocked by incubation with PBS containing 1% BSA, then washed with 2 mLs per well PBS-T prior to starting the reaction. Reactions were carried out in 100 μL reaction volumes containing 36 μM ATP in kinase buffer (50 mM Hepes buffer pH 7.4, 20 mM MgCl2, 0.1 mM MnCl2 and 0.2 mM Na3VO4). Test compounds were reconstituted in 100% DMSO and added to the reaction to give a final DMSO concentration of 5%. Reactions were initiated by the addition 20 ul per well of kinase buffer containing 200-300 ng purified cytoplasmic domain PDGFR-b protein (Millipore). Following a 60 minute incubation at 30° C., the reactions were washed 2 mLs per well PBS-T. 100 μl of a monoclonal anti-phosphotyrosine antibody-peroxidase conjugate diluted 1:10,000 in PBS-T was added to the wells for 30 minutes. Following a 2 mLs per well wash with PBS-Tween-20, 100 μl of O-Phenylenediamine Dihydrochloride in phosphate-citrate buffer, containing urea hydrogen peroxide, was added to the wells for 7-10 minutes as a colorimetric substrate for the peroxidase. The reaction was terminated by the addition of 100 μl of 2.5N H2SO4 to each well and read using a microplate ELISA reader set at 492 nm. IC50 values for compound inhibition were calculated directly from graphs of optical density (arbitrary units) versus compound concentration following subtraction of blank values. […]

Row | Compound | IC50
5 | CC(C)c1cccc(NC(=O)c2cccc(N3CCc4nc(N)ncc4C3)c2)c1 [Example 2, 3-(2-amino-7,8-dihydropyrido[4,3-d]pyrimidin-6(5H)-yl)-N-(3-isopropylphenyl)benzamide] | 54 nM
6 | Cc1cccc(NC(=O)c2cccc(N3CCc4nc(N)ncc4C3)c2)c1 [Example 3, 3-(2-amino-7,8-dihydropyrido[4,3-d]pyrimidin-6(5H)-yl)-N-(3-methylphenyl)benzamide] | 116 nM
7 | CC(C)(C)c1ccc(NC(=O)c2cccc(N3CCc4nc(N)ncc4C3)c2)cc1 [Example 4, 3-(2-amino-7,8-dihydropyrido[4,3-d]pyrimidin-6(5H)-yl)-N-(4-tert-butylphenyl)benzamide] | 109 nM
8 | Nc1ncc2c(n1)CCN(c1cccc(C(=O)Nc3cccc(C(F)(F)F)c3)c1)C2 [Example 5, 3-(2-amino-7,8-dihydropyrido[4,3-d]pyrimidin-6(5H)-yl)-N-[3-(trifluoromethyl)phenyl]benzamide] | 47 nM
9 | Cc1ccc(NC(=O)c2cccc(N3CCc4nc(N)ncc4C3)c2)cc1 [Example 6, 3-(2-amino-7,8-dihydropyrido[4,3-d]pyrimidin-6(5H)-yl)-N-(4-methylphenyl)benzamide] | 90 nM
10 | CCCCNC(=O)c1cccc(N2CCc3nc(N)ncc3C2)c1 [Example 16, 3-(2-amino-7,8-dihydropyrido[4,3-d]pyrimidin-6(5H)-yl)-N-butylbenzamide] | > 10000 nM
11 | CC(C)(C)C1CCC(NC(=O)c2cccc(N3CCc4nc(N)ncc4C3)c2)CC1 (centres unmarked) [Example 17, 3-(2-amino-7,8-dihydropyrido[4,3-d]pyrimidin-6(5H)-yl)-N-(4-tert-butylcyclohexyl)benzamide] | 246 nM
12 | Nc1ncc2c(n1)CCN(c1cccc(C(=O)NCC3CCCCC3)c1)C2 [Example 18, 3-(2-amino-7,8-dihydropyrido[4,3-d]pyrimidin-6(5H)-yl)-N-(cyclohexylmethyl)benzamide] | 602 nM
13 | Nc1ncc2c(n1)CCN(c1cccc(C(=O)NC3CCCC3)c1)C2 [Example 19, 3-(2-amino-7,8-dihydropyrido[4,3-d]pyrimidin-6(5H)-yl)-N-cyclopentylbenzamide] | > 10000 nM
14 | Cc1cccc(NC(=O)c2cccc(N3CCc4nc(N)ncc4C3)n2)c1 [Example 37, 6-(2-amino-7,8-dihydropyrido[4,3-d]pyrimidin-6(5H)-yl)-N-(3-methylphenyl)pyridine-2-carboxamide] | > 10000 nM
15 | Cc1cc(C(=O)Nc2cccc(C(F)(F)F)c2)cc(N2CCc3nc(N)ncc3C2)c1 [Example 148, 3-(2-amino-7,8-dihydropyrido[4,3-d]pyrimidin-6(5H)-yl)-5-methyl-N-[3-(trifluoromethyl)phenyl]benzamide] | 273 nM
16 | Cc1ccc(C(=O)Nc2cccc(C(C)C)c2)cc1N1CCc2nc(N)ncc2C1 [Example 149, 3-(2-amino-7,8-dihydropyrido[4,3-d]pyrimidin-6(5H)-yl)-N-(3-isopropylphenyl)-4-methylbenzamide] | 30 nM
17 | Cc1cc(C(=O)Nc2cccc(C(C)C)c2)cc(N2CCc3nc(N)ncc3C2)c1 [Example 150, 3-(2-amino-7,8-dihydropyrido[4,3-d]pyrimidin-6(5H)-yl)-N-(3-isopropylphenyl)-5-methylbenzamide] | 59 nM
18 | O=C(Nc1ccc(N2CCc3ccncc3C2)cc1)c1cccc(C(F)(F)F)c1 [Example 162, N-[4-(3,4-dihydro-2,7-naphthyridin-2(1H)-yl)phenyl]-3-(trifluoromethyl)benzamide] | > 10000 nM
19 | Cc1cccc(NC(=O)Nc2ccc(N3CCc4ccncc4C3)cc2)c1 [Example 163, 1-[4-(3,4-dihydro-2,7-naphthyridin-2(1H)-yl)phenyl]-3-(3-methylphenyl)urea] | 1560 nM
20 | O=C(Nc1ccccc1)Nc1ccc(N2CCc3ccncc3C2)cc1 [Example 164, 1-[4-(3,4-dihydro-2,7-naphthyridin-2(1H)-yl)phenyl]-3-phenylurea] | > 10000 nM
21 | Cc1ccc(NC(=O)Nc2ccc(N3CCc4ccncc4C3)cc2)cc1 [Example 165, 1-[4-(3,4-dihydro-2,7-naphthyridin-2(1H)-yl)phenyl]-3-(4-methylphenyl)urea] | > 1000 nM
22 | Cc1cccc(NC(=O)Nc2ccc(N3CCc4ccncc4C3)c(C)c2)c1 [Example 166, 1-[4-(3,4-dihydro-2,7-naphthyridin-2(1H)-yl)-3-methylphenyl]-3-(3-methylphenyl)urea] | 36 nM
23 | Cc1cccc(NC(=O)Nc2ccc(N3CCc4ccncc4C3)cc2C)c1 [Example 167, 1-[4-(3,4-dihydro-2,7-naphthyridin-2(1H)-yl)-2-methylphenyl]-3-(3-methylphenyl)urea] | 1050 nM
24 | CC(C)c1cccc(NC(=O)c2cccc(N3CCc4ccncc4C3)c2)c1 [Example 168, 3-(3,4-dihydro-2,7-naphthyridin-2(1H)-yl)-N-(3-isopropylphenyl)benzamide] | 40 nM
25 | COC(=O)c1cncc2c1CCN(c1cccc(C(=O)Nc3cccc(C(C)C)c3)c1)C2 [Example 169, Methyl 7-(3-{[(3-isopropylphenyl)amino]carbonyl}phenyl)-5,6,7,8-tetrahydro-2,7-naphthyridine-4-carboxylate] | 15 nM
26 | Nc1ncc2c(n1)CCN(c1cccc(C(=O)Nc3ccc(F)c(C(F)(F)F)c3)c1)C2 [Example 176, 3-(2-amino-7,8-dihydropyrido[4,3-d]pyrimidin-6(5H)-yl)-N-[4-fluoro-3-(trifluoromethyl)phenyl]benzamide] | 61 nM
